{"source": "patent US20260263616A1", "about": "“NOVEL HE[…] USE THEREOF” (PINOTBIO, INC., priority 2023, published 2026)", "key": {"[1]": {"system": "lung cancer cell line (A549)", "assay": "Cell viability assay (CellTiter-Glo), A549", "format": "cell-based", "settings": "for IC50: A549 cells, 3 days incubation, CellTiter-Glo luminescence, 50% of untreated control", "procedure": "(§1) FaDu or A549 cell lines were seeded into 96-well plates at a density of 3,000 cells per well and incubated at 37° C., 5% CO2. After 24 hours, 100 μL of drug at 9 concentrations (from 1000 nM, serially diluted 1/5) was added to the cell line. As the drugs, the compound of Chemical Formula 2 prepared according to Example 1, SC209 (MedChemExpress), and MMAE were treated, and at this time, a control group (drug concentration 0) without drug treatment was also prepared. After incubation under incubator conditions (37° C., 5% CO2) for 3 days, 100 µL of\n(§2) CellTiter-Glo reagent (using CellTiter-Glo® Luminescent Cell Viability Assay kit (Promega, G7571)) was added to each well of the plate, followed by pipetting. After incubation for 10 minutes (RT), luminescence was measured, and when the luminescence value at drug concentration 0 is regarded as 100%, the concentration showing 50% luminescence value is the IC50 value."}, "[2]": {"system": "head and neck squamous cell carcinoma cell line (FaDu)", "assay": "Cell viability assay (CellTiter-Glo), FaDu", "format": "cell-based", "settings": "for IC50: FaDu cells, 3 days incubation, CellTiter-Glo luminescence, 50% of untreated control", "procedure": "as §1, §2"}}, "note": "Square brackets hold non-standard residues; d marks the D form. Peptide text beside a SMILES is read from it. * marks the point of attachment. Dolaproine = CO[C@@H]([C@@H]1CCCN1)[C@@H](C)C(=O)O; Dil = CC[C@H](C)[C@H](NC)[C@@H](CC(=O)O)OC; X1 = C[C@@H](N*)[C@@H](O)c1ccccc1; NMeV = CN[C@H](C(=O)O)C(C)C", "data": [{"smiles": "CN[C@H](C(=O)N[C@H](C(=O)N(C)[C@H](/C=C(\\C)C(=O)O)C(C)C)C(C)(C)C)C(C)(C)c1ccc(OC)c(N)c1", "note": "[Compound of Chemical Formula 2]", "values": [{"measurement": "IC50", "setting": "[1]; Homo sapiens, 72 h", "value": 22.6, "unit": "nM"}, {"measurement": "cell viability compared with SC209 and MMAE", "setting": "[1]; lung cancer cell line (printed A529), 3 days treatment", "value": "decreased to a level similar to that observed with SC209 and MMAE treatment"}, {"measurement": "cell viability compared with SC209 and MMAE", "setting": "[2]; FaDu cell line, 3 days treatment", "value": "decreased to a level similar to that observed with SC209 and MMAE treatment"}, {"measurement": "IC50", "setting": "[2]; Homo sapiens, 72 h", "value": 6.17, "unit": "nM"}]}, {"smiles": "CC[C@H](C)[C@@H]([C@@H](CC(=O)N1CCC[C@H]1[C@H](OC)[C@@H](C)C(=O)N[C@H](C)[C@@H](O)c1ccccc1)OC)N(C)C(=O)[C@@H](NC(=O)[C@@H](NC)C(C)C)C(C)C", "note": "[MMAE, reference compound] (H-[NMeV]V[Dil][Dolaproine]-X1)", "values": [{"measurement": "IC50", "setting": "[1]", "value": 3.72, "unit": "nM"}, {"measurement": "IC50", "setting": "[2]", "value": 1.57, "unit": "nM"}]}]}
